The source of these data is patent US20030003579A1, “Dendritic cells; methods” (priority 2000, published 2003).

In data set [1] the test system is pre-DC2. Briefly: Viability of pre-DC2 by propidium iodide staining and flow cytometry. The data set is classed as cell-based, human. Particulars: 24 h culture. On the procedure: (§1) Underlines indicate palindromic sequences. ODNs 1668, 2117, and 2006 are phosphorothioate forms, and ACC-30, AAC-30, and GAC-30 are phosphodiester forms. The phosphorothioate ODNs were added at 0 h at 0.1 μM or 1 μM, and the phosphodiester ODNs were added at 0, 4, and 16 h, 5 μM at each time point, to compensate for their degradation by deoxyribonuclease activity in media.
(§2) Monocytes, CD11c^+ DC, and pre-DC2 were isolated from human peripheral blood. See Grouard, et al. (1997) J. Exp'l Med. 185:1101-1111; and Kadowaki, et al. (2000) J. Exp'l Med. 192:219-226. The cells were cultured for 24 h in RPMI1640 containing 10% FCS at 2×10^4/200 μl in round-bottom 96-well culture plates in the presence of ODNs or 50 μg/ml poly I:C (Sigma). Adult dermal fibroblasts (Clonetics) were maintained as recommended by the company, and were stimulated with 50 μg/ml poly I:C for 24 h at 7.5×10^4/ml in 12-well culture plates.
IV. Analysis of viability of pre-DC2 stimulated with ODNs or poly I:C Pre-DC2 cultured for 24 h without stimulation or with ODNs or poly I:C were stained with propidium iodide, and were analyzed with a FACScan® flow cytometer (Becton Dickinson). After cell debris was excluded by an appropriate forward scatter threshold, the percentages of propidium iodide-negative cells were calculated.
Pre-DC2 were cultured for 24 h without stimulation, with the indicated ODNs, or with 50 μg/ml poly I:C. ACC-30, AAC-30, and GAC-30 were added at 5 μM. After cell debris was excluded by an appropriate forward scatter threshold, the percentages of propidium iodide-negative cells were measured by flow cytometry

The subject of data set [2] is pre-DC2. Put plainly: Flow cytometric analysis of CD80 and CD86 expression on pre-DC2. Type of data set: cell-based, human. As to conditions: for expression of CD80 and CD86 on pre-DC2: 5 μM phosphodiester ODN, 24 h. On the procedure: as §1, §2
(§3) Freshly isolated pre-DC2 and pre-DC2 stimulated with ODNs for 24 h were stained with PE-conjugated anti-CD80 (L307.4, Becton Dickinson), PE-conjugated anti-CD86 (2331, Pharmingen), or an isotype control antibody. CD11c^+ DC cultured for 24 h without stimulation or with poly I:C were stained with FITC-conjugated anti-CD80 (L307.4), FITC-conjugated anti-CD86 (2331), or an isotype control antibody. The cells were analyzed with a FACScan® flow cytometer. Dead cells were excluded by staining with propidium iodide.
Freshly isolated pre-DC2 and pre-DC2 cultured with the CpG ODNs for 24 h were stained with PE-conjugated anti-CD80 or anti-CD86 mAbs. The upregulation of CD80 and CD86 expression on pre-DC2 is a hallmark of their differentiation into DC. Grouard, et al. (1997) J. Exp'l Med. 185:1101-1111; and Kadowaki, et al. (2000) J. Exp'l Med. 192:219-226.

For data set [3], the system named is pre-DC2. Put plainly: Cytokine production by pre-DC2, ELISA of supernatants. The data set is classed as cell-based, human. As to conditions: 24 h. On the procedure: as §1, §2
(§4) An IFN-α ELISA kit, an IL-12 ELISA kit (Biosource International), and an IFN-β ELISA kit (FUJIREBIO) were used to analyze cytokine production.
(§5) It was examined whether CpG ODNs and poly I:C induce pre-DC2 to produce IFN-α. Cells were stimulated with various CpG ODNs (2117, 2006, 1668: 1 μM, ACC-30, AAC-30, GAC-30: 5 μM) for 24 h, and the concentrations of IFN-α in the supernatants were measured by ELISA. Typically, cytokine is accumulated from cultures of about 2×10^4 cells in 200 μl cultured for 24 h. […] In contrast, AAC-30 and GAC-30 induced pre-DC2 to produce large amounts of IFN-α (AAC-30 508-1806 pg/ml, GAC-30 931-1362 pg/ml). ACC-30 induced pre-DC2 to produce much smaller amounts of IFN-α (18-161 pg/ml). None of the CpG ODNs used here induced CD11c^+ DC and monocytes to produce detectable levels of IFN-α.

Data set [4] relates to CD11c^+ DC. Briefly: Cytokine production by CD11c+ DC, ELISA of supernatants. Type of data set: cell-based, human. Particulars: 24 h. On the procedure: as §1, §2, §4, §5
The test system of data set [5] is monocytes. Briefly: Cytokine production by monocytes, ELISA of supernatants. Type of data set: cell-based, human. As to conditions: 24 h; for IFN-α production by monocytes: CpG ODNs (2117, 2006, 1668: 1 μM; ACC-30, AAC-30, GAC-30: 5 μM). On the procedure:
as §1, §2, §4, §5

Data set [6] relates to Adult dermal fibroblasts. Briefly: IFN-β production by poly I:C stimulated fibroblasts, ELISA. Type of data set: cell-based. Particulars: 50 μg/ml poly I:C, 24 h, 7.5×10^4/ml. On the procedure: as §2, §4
Data set [7] relates to CD11c^+ DC. Put plainly: Flow cytometric analysis of CD80 and CD86 expression on CD11c+ DC. Type of data set: cell-based, human. As to conditions: 50 μg/ml poly I:C, 24 h culture. On the procedure:
as §2, §3
CD11c^+ DC cultured for 24 h without stimulation or with 50 μg/ml poly I:C were stained with FITC-conjugated anti-CD80 or anti-CD86 mAbs. […] Cella, et al. (1999) J. Exp'l Med. 189:821-829; and Verdijk, et al. (1999) J. Immunol. 163:57-61. […]

[8] abbreviates: 5 μM phosphodiester ODN added at 0, 4 and 16 h.
[9] abbreviates: 5 μM ODN, about 2×10^4 cells in 200 μl.
The mark [10] stands for this setting: CpG ODNs (2117, 2006, 1668: 1 μM; ACC-30, AAC-30, GAC-30: 5 μM).

“AAC-30: palindromic CpG oligodeoxynucleotide ACCGATAACGTTGCCGGTGACGGCACCACG (DNA, all phosphodiester, methylation of C not given here)”: the “survival of pre-DC2 (propidium iodide-negative cells)” value (“survival of pre-DC2” for short) in data set [1] (setting [8]) was “maintained the survival of pre-DC2”. For the same substance, the “expression of CD80 and CD86 on pre-DC2” value in data set [2] is “upregulated CD80 and CD86, albeit to a lesser extent than 2006 and 2117”. The “IFN-α production by pre-DC2” value in data set [3] (setting [9]) is 508 to 1806 pg/mL. Further, in data set [4] (setting [10]), the “IFN-α production by CD11c+ DC” value is “did not produce detectable levels of IFN-α”. In data set [5], the “IFN-α production by monocytes” value is reported as “did not produce detectable levels of IFN-α”.

As to “ACC-30: oligodeoxynucleotide ACCGATACCGGTGCCGGTGACGGCACCACG (DNA, all phosphodiester, methylation of C not given here)”, the “survival of pre-DC2” value in data set [1] (setting [8]) is “less efficient”. The “IFN-α production by pre-DC2” value in data set [3] (setting [9]) fell in the range of 18 to 161 pg/mL.

Take “GAC-30: palindromic CpG oligodeoxynucleotide ACCGATGACGTCGCCGGTGACGGCACCACG (DNA, all phosphodiester, methylation of C not given here)”: the “survival of pre-DC2” value in data set [1] (setting [8]) is reported as “maintained the survival of pre-DC2”. For the same substance, in data set [2], the “expression of CD80 and CD86 on pre-DC2” value is “upregulated CD80 and CD86, albeit to a lesser extent than 2006 and 2117”. Besides, the “IFN-α production by pre-DC2” value in data set [3] (setting [9]) lay within 931 to 1362 pg/mL. The “IFN-α production by CD11c+ DC” value in data set [4] (setting [10]) is “did not produce detectable levels of IFN-α”. Moreover, in data set [5], the “IFN-α production by monocytes” value is recorded as “did not produce detectable levels of IFN-α”.

Regarding “polyinosinic polycytidylic acid [poly I:C]”, in data set [1] (50 μg/ml poly I:C), the “survival of pre-DC2” value is reported as “did not maintain the survival of pre-DC2”. Further, in data set [2] (poly I:C), the “differentiation of pre-DC2 into DC” value was “does not stimulate pre-DC2 to survive and to differentiate into DC”. The “IFN-α production by pre-DC2” value in data set [3] (50 μg/ml poly I:C) is “did not induce pre-DC2 to produce a detectable level of IFN-α”. Also, in data set [4] (50 μg/ml poly I:C), the “IFN-α production by CD11c+ DC” value fell in the range of 24.1 to 97.9 pg/mL, the “IFN-β production by CD11c+ DC” value was in the range of 33.6 to 166.5 pg/mL and the “IL-12 production by CD11c+ DC” value was 17.7 to 137.7 pg/mL. For the same substance, the “IFN-β production by monocytes” value in data set [5] (50 μg/ml poly I:C) is listed as “but not pre-DC2 or monocytes”. Also, the “IFN-β production by fibroblasts” value in data set [6] was 28.6 to 48.5 pg/mL. Further, in data set [7], the “expression of CD80 and CD86 on CD11c+ DC” value was “strongly upregulated”.

For the substance “1668: CpG oligodeoxynucleotide TCCATGACGTTCCTGATGCT (DNA, all phosphorothioate, methylation of C not given here) [compound 1668]”, the “survival of pre-DC2” value in data set [1] (1 μM phosphorothioate ODN) is “did not maintain the survival of pre-DC2”. Also, in data set [3] (1 μM ODN, about 2×10^4 cells in 200 μl), the “IFN-α production by pre-DC2” value is “did not induce pre-DC2 to produce detectable levels of IFN-α”.
